Results published in patent US4613614A, “Prostaglandin I2 ester and fat emulsion containing the same” (The Green Cross Corporation, priority 1983, dated 1986).
≈ marks a conversion by molar mass, not a printed value. Structures can show the parent of a compound that is named as a salt.

What was measured:
[1] = tested on: platelet agglutination (PRP, plasma rich in platelet); test: Change of agglutination-inhibition rate with incubation time, fat emulsions (evaluated indirectly via c-AMP content in the platelets); format: cell-based, Wistar-strain male rats; set-up: concentration or dose not given beside the values; details: compounds in fat emulsion, sodium salt of prostaglandin I2 in aq. solution; for agglutination-inhibition rate, incubation time 5 minutes: incubation 5 minutes; for agglutination-inhibition rate, incubation time 20 minutes: incubation 20 minutes; for agglutination-inhibition rate, incubation time 60 minutes: incubation 60 minutes
Text: (§1) Wistar-strain male rats weighing 150 to 200 g were used in the experiment.
(§2) Blood samples were collected from the heart of the animal without anasthesia by the use of a syringe, in which 3.3% sodium citrate solution had been placed beforehand, in such a way that the volume ratio of the sodium citrate solution to the collected blood was 1:9. The collected blood was then quickly centrifuged at 170 G at room temperature to obtain plasma rich in platelet (hereinafter referred to as PRP).
Separately, by using fat emulsions prepared as in Example 3 and extending the incubation time to 5, 20 and 60 minutes, the changes in agglutination-inhibition rate were observed. Each fat emulsion was prepared to contain 1 mg in terms of prostaglandin I2 of a test compound. It was incubated with PRP for a predetermined time; the platelets were then washed; and the content of c-AMP in the platelets was determined, thus to evaluate indirectly the inhibitory action on platelet agglutination. A physiological saline solution of sodium salt of prostaglandin I2 was used as the control.

[2] = tested on: platelet agglutination (PRP, plasma rich in platelet); test: Platelet-agglutination inhibition test (rat PRP, adenosine phosphate, aggregometer); format: cell-based, Wistar-strain male rats; details: 1 min, concentration in terms of prostaglandin I2 reducing maximum agglutination rate by 50% relative to control, 1 min at 37° C., 1 mM adenosine phosphate, read-out: ED50 (the source's name)
Text: as §1, §2
Then, the compounds 1, 2 and 3 as well as sodium salt of prostaglandin I2 were respectively dissolved in ethanol to a concentration of 1 mg/ml in terms of prostaglandin I2, and thereafter diluted with physiological saline to form solutions of various concentrations.
The platelet-agglutination inhibition test was carried out in the following manner.
The above-mentioned PRP (500 μl) and the above solution 50 μl) containing the drug tested were incubated at 37° C. for one minute in an aggregometer cuvette; then 1 mM adenosine phosphate solution (50 μl) was added to the mixture to obtain an agglutination curve on the instrument and determine the maximum agglutination rate. A mixture of 500 μl of PRP, 50 μl of physiological saline and 50 μl of 1 mM adenosine phosphate solution was used as the control to obtain similarly an agglutination curve.
The concentration (ED50) in terms of prostaglandin I2 of each of the drugs to be tested, at which the solution containing the drug reduces the percentage of the maximum agglutination rate by 50% relative to that of the control taken as 100, was calculated.

[3] = tested on: platelet agglutination (PRP, plasma rich in platelet); test: Change of agglutination-inhibition rate with incubation time, fat emulsions (evaluated indirectly via c-AMP content in the platelets); format: cell-based, Wistar-strain male rats; set-up: concentration or dose not given beside the values; details: incubation 1 minute; compounds in fat emulsion, sodium salt of prostaglandin I2 in aq. solution
[4] = tested on: human platelet agglutination; details: cited from earlier work
[5] = cited from earlier work
[6] = tested on: artery; details: cited from earlier work
[7] = tested on: other smooth muscles; details: cited from earlier work
[8] = tested on: platelet agglutination; details: cited from earlier work

Structure (SMILES) | agglutination-inhibition rate, incubation time 5 minutes [1] [%] | agglutination-inhibition rate, incubation time 20 minutes [1] [%] | agglutination-inhibition rate, incubation time 60 minutes [1] [%] | IC50 [2] [µg/mL] | agglutination-inhibition rate, incubation time 1 minute [3] [%] | suppression of human platelet agglutination action induced by arachidonic acid [4] | water solubility [5] | artery-relaxative or artery-contractive action [6] | relaxation of other smooth muscles [7] | platelet-agglutination action [8]
CCCCCC(O)C=CC1C(O)CC2OC(=CCCCC(=O)OCC(=O)OCCCC)CC21 (centres unmarked) [Compound 1, butoxycarbonylmethyl prostaglandin I2 ester] | 11 | 7 | 3 | 4.6 (≈ 9.86 µM) | 13 |  |  |  |  | 
CCCCCC(O)C=CC1C(O)CC2OC(=CCCCC(=O)OCOC(=O)C(C)(C)C)CC21 (centres unmarked) [Compound 2, Pivaloyloxymethyl prostaglandin I2 ester] | 78 | 51 | 27 | 0.5 (≈ 1.07 µM) | 93 |  |  |  |  | 
CCCCCC(=O)OC(C)OC(=O)CCCC=C1CC2C(CC(O)C2C=CC(O)CCCCC)O1 (centres unmarked) [Compound 3, 1-Hexanoyloxyethyl prostaglandin I2 ester] | 71 | 65 | 48 | 0.7 (≈ 1.42 µM) | 78 |  |  |  |  | 
CCCCC[C@H](O)/C=C/[C@@H]1[C@H]2C/C(=C/CCCC(=O)O)O[C@H]2C[C@H]1O [Sodium salt of prostaglandin I2, reference compound] | 17 | 0 | 0 | 0.4 | 100 |  |  |  |  | 
CCCCC[C@H](O)/C=C/[C@@H]1[C@H]2C/C(=C/CCCC(=O)O)O[C@H]2C[C@H]1O [prostaglandin I2, (5Z,13E)-(9α, 11α, 15S)-6,9-epoxy-11,15-dihydroxyprosta-5,13-dienoic acid] |  |  |  |  |  | strongly suppresses | fairly water-soluble | powerful artery-relaxative action | does not relax other smooth muscles | 
CCCCCC(O)C=CC1OC2CC(O2)C1CC=CCCCC(=O)O (centres unmarked) [thromboxan A2] |  |  |  |  |  |  |  | artery-contractive action |  | platelet-agglutination action
